According to patent US6403831B1, “Substituted benzylidene indenyl formamides, acetamides and propionamides” (Cell Pathways, Inc., priority 1996, dated 2002):
Marks after values point to notes of the source that are not given here.

Experiments:
[1] = tested on: human colon carcinoma cell line, SW-480; experiment: Growth inhibition, Sulforhodamine B (SRB) protein binding assay; assay type: cell-based; conditions: SW-480 cell line, six days continuous exposure
Method: These compounds were assayed for their growth inhibitory activity on the human colon carcinoma cell line, SW-480 obtained from ATCC (Rockville, Md.), to ascertain the degree of growth inhibition. Growth inhibition of this cell line is indicative of a benefit on precancerous lesions and neoplasms. The cell line and growth assay employed for these experiments are well characterized, and are used to evaluate the anti-neoplastic properties of NSAIDs. The assay is used by the United States National Cancer Institute in its screening program for new anti-cancer drugs.
Drug stock solutions were made in 100% DMSO then diluted with RPMI media for cell culture testing. All drug solutions were prepared fresh on the day of testing. The cultured cells were obtained at passage #99 and grown in RPMI media supplemented with 5% fetal calf serum, and 2 mM glutamine, 100 U/ml penicillin, 100 U/ml streptomycin, and 0.25 μg/ml amphotericin. The cultures were maintained in a humidified atmosphere of 95% air and 5% CO2 at 37° C. The cultures were passaged at preconfluent densities using a solution of 0.05% trypsin and 0.53 mM EDTA. Cells were plated at 1000 cells/well for 96 well flat-bottom microtiter plates.
Tumor cell growth inhibition was assessed using the Sulforhodamine B (SRB) protein binding assay. In this assay, tumor cells were plated in 96-well plates and treated with drug-containing media for six days (continuous exposure). For each plate, 6 wells were designated as no treatment controls, six wells as vehicle (0.1% DMSO) controls, and the remaining wells for drug dilutions with three wells per drug concentration. At the end of the exposure period, the cells were fixed and stained with sulforhodamine B, a protein binding dye. The dye was then solubilized, and the optical density of the resulting solution was determined on a 96-well plate reader. The mean dye intensity of the treated wells was then divided by the mean dye intensity in the control wells (6 wells of each) to determine the effect of the drug on the cells. Dye intensity is proportional to the number of cells or amount of protein per well. The resultant “percent inhibition” value then represents the degree of growth inhibition caused by the drug.
For each experiment, an IC50 value was determined and used for comparative purposes. This value is equivalent to the concentration of drug needed to inhibit tumor cell growth by 50%. IC50 values were obtained graphically by connecting the mean values for each drug concentration tested. Each experiment included at least three wells per drug concentration. Concentration was plotted on a log scale on the X-axis.

COX I = target: T1, COX I (Ovis aries, UniProt P05979); experiment: Cyclooxygenase (COX) inhibition, purified COX; assay type: biochemical; conditions: purified COX from ram seminal vesicles; for COX I % Inhibition (100 μM): 100 μM test compound, arachidonic acid 100 μM; for COX I % Inhibition (values marked *): values marked *: 1000 μM test compound
T1 construct: The COX was purified form ram seminal vesicles; from tissue; host or cells: ram seminal vesicles
T1 sequence (P05979 25-600): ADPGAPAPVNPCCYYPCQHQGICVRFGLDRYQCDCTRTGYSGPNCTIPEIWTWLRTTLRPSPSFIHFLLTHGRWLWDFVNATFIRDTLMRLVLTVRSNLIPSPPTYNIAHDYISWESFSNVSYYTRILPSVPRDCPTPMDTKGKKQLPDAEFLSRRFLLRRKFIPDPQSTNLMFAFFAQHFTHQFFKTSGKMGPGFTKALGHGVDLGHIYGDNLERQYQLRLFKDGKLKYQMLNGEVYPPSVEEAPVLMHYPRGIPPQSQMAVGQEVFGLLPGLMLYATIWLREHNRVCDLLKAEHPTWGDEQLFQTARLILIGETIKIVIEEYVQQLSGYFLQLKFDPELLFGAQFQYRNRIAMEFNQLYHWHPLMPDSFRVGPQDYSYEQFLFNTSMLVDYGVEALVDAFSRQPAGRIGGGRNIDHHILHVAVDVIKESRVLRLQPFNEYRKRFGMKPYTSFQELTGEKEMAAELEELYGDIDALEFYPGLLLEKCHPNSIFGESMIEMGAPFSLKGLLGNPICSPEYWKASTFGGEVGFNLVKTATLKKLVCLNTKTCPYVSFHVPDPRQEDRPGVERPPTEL
Method: Compounds of this invention, as well as a positive control, sulindac sulfide were to determine whether they inhibited the production of cyclooxygenase (see Table 5 below).
COX catalyzes the formation of prostaglandins and thromboxane by the oxidative metabolism of arachidonic acid. The compounds of this invention were evaluated for inhibitory effects on purified COX. The COX was purified form ram seminal vesicles, as described by Boopathy, R. and Balasubramanian, J. 239:371-377, 1988. COX activity was assayed as described by Evans, A. T., et al., “Actions of cannabis constituents on enzymes of arachidonate metabolism anti-flammatory potential,” Biochem. Pharmacol., 36:2035-2037, 1987. Briefly, purified COX was incubated with arachidonic acid (100 μM) for 2.0 min at 37° C. in the presence or absence of test compounds. The assay was terminated buy the addition of TCA, and COX activity was determined by absorbance at 530 nm.

[2] = tested on: SW-480 colon adenocarcinoma cells; experiment: Apoptosis by DNA fragmentation (Cell Death Detection ELISA plus); assay type: cell-based, human; conditions: SW-480 cells, 48 hrs; for EC50: by software or estimated from effective concentration range; for DNA Fragmentation FS (100 μM): fold stimulation FS=ODmax/ODveh
Method: Apoptosis was also measured based on the amount of fragmented DNA contained in cell lysates. Briefly, SW-480 colon adenocarcinoma cells were plated in 96-well microtitre plates (“MTP”) at a density of 10K cells/well in 180 μl and incubated for 24 hrs. Cells were then treated with 20 μl aliquots of appropriately diluted compound, and allowed to incubate for an additional 48 hrs.
After the incubation, samples were prepared according to the following steps. The MTP was centrifuged (15 min., 1000 rpm) and the supernatant was carefully removed by fast inversion of the MTP. The cell pellents in each well were then resuspended in ^200 μl lysis buffer and incubated for 45 min. at room temperature to lyse the cells. The lysates were then centrifuged (15 min., 1000 rpm) and 20 μl aliquots of the supernatant (=cytoplasmic fraction) were transferred into the streptavidin coated MTP for analysis. Care was taken not to shake the lysed pellets in the MTP (=cell nucleii containing high molecular weight, unfragmented DNA). Samples were analyzed immediately, because storage at 4 C or −20 C reduces the ELISA-signals.
Samples were then processed according to a DNA fragmentation assay protocol, and dose-response curves were generated based on optical density readings. Quantification of DNA was done by a commercially available photometric enzyme-immunoassay manufactured by Mannheim-Boehringer under the name “Cell Death Detection ELISA^plus”. The assay is based on a quantitative sandwich-enzyme-immunoassay-principle using mouse monoclonal antibodies directed against DNA and histones, respectively. This allows the specific determination of mono and oligonucleosomes in the cytoplasmatic fraction of cell lysates. In brief, the assay procedure is as follows. The sample (cell-lysate, serum, culture-supernatant etc.) is placed into a streptavidin-coated MTP. Subsequently, a mixture of anti-histone-biotin and anti-DNA-POD are added and incubated for 2 hours. During the incubation period, the anti-histone antibody binds to the histone-component of the nucleosomes and simultaneously fixes the immunocomplex to the streptavidin-coated MTP via its biotinylation. Additionally, the anti-DNA-POD antibody reacts with the DNA component of the nucleosomes. After removal of unbound antibodies by a washing step, the amount of nucleosomes is quantified by the POD retained in the immunocomplex. POD is determined photometrically with ABTS® (2,2′-Azino-di[3-ethylbenzthiazolin-sulfonat])* as substrate.
Fold stimulation (FS=ODmax/ODveh), an indicator of apoptotic response, was determined for each compound tested. EC50 values were determined either specifically by data analysis software, or by estimates based on the effective concentration range of each compound (ECR=min. effective dose-min. dose to peak effect). These FS and EC50 values for the tested compounds are listed above in Table 6.

[3] = tested on: HT-29 human colon carcinoma cells; experiment: Apoptosis by morphology (acridine orange/ethidium bromide, condensed chromatin); assay type: cell-based; conditions: HT-29 cells
Method: Apoptosis was measured using an assay of cell death based on morphological characteristics of apoptotic cells (i.e., condensed chromatin). Drug preparation and cell culture conditions were the same as for the SRB assay described above, except that HT-29 human colon carcinoma cells were employed/Confluent cultures were established in 12.5 cm^2 flasks by plating 0.5×10^6 cells/flask. The cultures were assayed for apoptosis by fluorescent microscopy following labeling with acridine orange and ethidium bromide. Floating and attached cells were collected by trypsinization and washed three times in PBS. One ml aliquots were centrifuged (3 g). The pellet was resuspended in 25 μl media and 1 μl of a dye mixture containing 100 μg/ml acridine orange and 100 μg/ml ethidium bromide prepared in PBS and mixed gently. Ten μl of mixture was placed on a microscope slide and covered with a 22 mm^2 coverslip and examined under 40×dry objectives using epillumination and filter combination.
An observer blinded to the identity of the treatments scored at least 100 cells per sample. Apoptotic cells were identified by nuclear condensation of chromatin stained by the acridine orange or ethidium bromide.

| IC50 [1] | COX I % Inhibition (100 μM) (COX I) | COX I % Inhibition (values marked *) (COX I) | SMILES | EC50 [2] | DNA Fragmentation FS (100 μM) [2] | Morphology % Apoptotic Cells (1 μM) [3] |
| --- | --- | --- | --- | --- | --- | --- |
| 500 nM | <25% | – | COc1cc(OC)c(/C=C2/C(C)=C(CC(=O)NCc3ccccc3)c3cc(F)ccc32)c(OC)c1 [Example 55, (Z)-5-fluoro-2-methyl-1-(2,4,6-trimethoxybenzylidene)-3-(N-benzyl)-indenylacetamide] | – | – | – |
| 260 nM | <25% | – | COc1ccc(/C=C2/C(C)=C(CC(=O)NCc3ccccc3)c3cc(F)ccc32)c(OC)c1OC [Example 57, (Z)-5-fluoro-2-methyl-1-(2,3,4-trimethoxybenzylidene)-3-(N-benzyl)-indenylacetamide] | 0.3 µM | <2 | 73% |
| 2250 nM | – | <25* % | COc1cc(/C=C2/C(C)=C(CC(=O)NCc3c(F)c(F)c(F)c(F)c3F)c3cc(F)ccc32)cc(OC)c1OC [Example 51, (Z)-5-fluoro-2-methyl-1-(3,4,5-trimethoxybenzylidene)-3-(N-pentafluorobenzyl)-idenylacetamlde] | > 10 µM | <2 | 40% |

Further lines, the compound ahead of its results:

| SMILES | IC50 [1] | COX I % Inhibition (100 μM) (COX I) | COX I % Inhibition (values marked *) (COX I) | EC50 [2] | DNA Fragmentation FS (100 μM) [2] | Morphology % Apoptotic Cells (1 μM) [3] |
| --- | --- | --- | --- | --- | --- | --- |
| C=CCNC(=O)CC1=C(C)/C(=C/c2cc(OC)c(OC)c(OC)c2)c2ccc(F)cc21 [Example 28, (Z)-5-fluoro-2-methyl-1-(3,4,5-trimethoxybenzylidene)-3-(N-allyl)-indenylacetamide] | 370 nM | <25% | – | 0.23 µM | 2.3 | 35% |
| COc1cc(/C=C2/C(C)=C(CC(=O)N(Cc3ccccc3)C(C)O)c3cc(F)ccc32)cc(OC)c1OC (centres unmarked) [Example 47, (Z)-5-fluoro-2-methyl-1-(3,4,5-trimethoxybenzylidene)-3-(N-benzyl-N-(1-hydroxyethyl))-idenylacetamide] | 4100 nM | – | 37* % | 5.7 µM | 4.4 | 20% |
| COc1cc(/C=C2/C(C)=C(CC(=O)N(CCN(C)C)Cc3ccccc3)c3cc(F)ccc32)cc(OC)c1OC [Example 36, (Z)-5-fluoro-2-methyl-1-(3,4,5-trimethoxybenzylidene)-3-(N-benzyl-N-2-dimethylaminoethyl)-indenylacetamide] | 3000 nM | – | 72* % | 0.01 µM | 5.3 | 22% |
| COc1ccc(CNC(=O)CC2=C(C)/C(=C/c3cc(OC)c(OC)c(OC)c3)c3ccc(F)cc32)c(OC)c1 [Example 19, (Z)-5-fluoro-2-methyl-1-(3,4,5-trimethoxybenzylidene)-3-(N-2,4-dimethoxybenzyl)-indenylacetamide] | 4500 nM | 33.3% | – | 7 µM | 2 | <20% |
| COc1cc(/C=C2/C(C)=C(CC(=O)N[C@H](O)Cc3ccccc3)c3cc(F)ccc32)cc(OC)c1OC [Example 45, (Z)-5-fluoro-2-methyl-1-(3,4,5-trimethoxybenzylidene)-3-(N-(R)-1-hydroxy-2-phenylethyl)-idenylacetamide] | > 10000 nM | – | 56* % | > 10 µM | 3.4 | 40% |
| COc1cc(/C=C2/C(C)=C(CC(=O)NCc3ccccc3N)c3cc(F)ccc32)cc(OC)c1OC [Example 34, (Z)-5-fluoro-2-methyl-1-(3,4,5-trimethoxybenzylidene)-3-(N-2-aminobenzyl)-indenylacetamide] | 6200 nM | – | 31* % | > 10 µM | 2.1 | 45% |
| COc1cc(/C=C2/C(C)=C(CC(=O)Nc3ccc(Br)cc3)c3cc(F)ccc32)cc(OC)c1OC [Example 23, (Z)-5-fluoro-2-methyl-1-(3,4,5-trimethoxybenzylidene)-3-(N-4-bromophenyl)-indenylacetamide] | 8000 nM | <25% | – | – | – | – |
